Data as given in patent publication US9738591B2, “Antimicrobial compounds” (priority 2009, dated 2017).
In brackets after ≈: the same amount, converted by molar mass.

Legend:
S. pyogenes NCTC 8302 = assay: MIC and MBC by broth microdilution; format: cell-based; details: Streptococcus pyogenes, NCTC8302, CA-MHB+LHB, two independent replicates
Experimental: (§1) The method used was based on CLSI protocols for broth microdilution testing of these species. As recommended by CLSI, inocula were prepared by direct colony suspension, and the media used were cation-adjusted Mueller Hinton broth (CA-MHB) for Staphylococcus spp. and CA-MHB containing 5% lysed horse blood (CA-MHB+LHB) for Streptococcus spp. Briefly, 24 h blood agar plate (BA) cultures of Staphylococcus aureus strains NCTC 6571, ATCC 29213, ATCC 33592 (MRSA) and NCTC 10442 (MRSA), Staphylococcus epidermidis ATCC 29971, Staphylococcus xylosus ATCC 29971, Streptococcus pneumoniae strains ATCC 49619 and ATCC 6305, and Streptococcus pyogenes strains NCTC 8191 and NCTC 8302 were used to prepare 0.5 McFarland suspensions in saline. Two 640 μg/ml working stocks of TSB007 were prepared from a fresh master stock, one in CA-MHB for testing against the Staphylococcus spp. and the other in CA-MHB+LHB for testing against Streptococcus spp. The working stocks were further diluted 1/10 in these broths for adding to microtitre trays to test MICs of 32, 16, 8, 4, 2, 1, 0.5, 0.25, 0.125 and 0.06 μg/ml.
(§2) The wells of two 96-well microtitre trays (one for Staphylococcus spp. and one for Streptococcus spp.) were filled with 100 μl of the appropriate broth, except for the first column. The last column, a sterility control containing no TSB007 or inoculum, was filled with an additional 100 μl broth. Then 100 μl of the 64 μg/ml TSB007 solution was added to the first two columns, the contents of column 2 was mixed, then 100 μl of this was used in two-fold serial dilutions along the rest of the tray except the last two columns. The final 100 μl was discarded. […] Finally, to the first 11 wells of one row per strain, 100 μl of a 10^−2 dilution (in the appropriate broth) of the 0.5 McFarland suspension was added. The microtitre trays were then incubated at 35° C. for 24 h before the MICs were read visually. Wells were further subcultured (10 μl drop onto BA then incubated at 35° C. for 24 h) and colonies subsequently counted to determine minimum bactericidal concentrations (MBCs). The concentration of the initial inoculum was confirmed on BA by counting colonies from 2×10 μl spots of 10^−5 dilutions of the 0.5 McFarland suspensions. Testing was performed on two separate occasions.

S. xylosus ATCC 29971 = assay: MIC and MBC by broth microdilution; format: cell-based; details: Staphylococcus xylosus, ATCC29971, CA-MHB, two independent replicates
Experimental: as §1, §2

S. aureus ATCC 29213 = assay: MIC and MBC by broth microdilution; format: cell-based; details: Staphylococcus aureus, ATCC29213, CA-MHB, two independent replicates
Experimental: as §1, §2

S. pyogenes NCTC 8191 = assay: MIC and MBC by broth microdilution; format: cell-based; details: Streptococcus pyogenes, NCTC8191, CA-MHB+LHB, two independent replicates
Experimental: as §1, §2

S. pneumoniae ATCC 6305 = assay: MIC and MBC by broth microdilution; format: cell-based; details: Streptococcus pneumoniae, ATCC6305, CA-MHB+LHB, two independent replicates
Experimental: as §1, §2

S. pneumoniae ATCC 49619 = assay: MIC and MBC by broth microdilution; format: cell-based; details: Streptococcus pneumoniae, ATCC49619, CA-MHB+LHB, two independent replicates
Experimental: as §1, §2

[1] = system: S. aureus NCTC 10442 (MRSA); assay: MIC and MBC by broth microdilution; format: cell-based; details: Staphylococcus aureus, CA-MHB, two independent replicates
Experimental: as §1, §2

[2] = system: S. aureus ATCC 33592 (MRSA); assay: MIC and MBC by broth microdilution; format: cell-based; details: Staphylococcus aureus, CA-MHB, two independent replicates
Experimental: as §1, §2

S. aureus NCTC 6571 [3] = assay: MIC and MBC by broth microdilution; format: cell-based; details: Staphylococcus aureus, NCTC6571, CA-MHB, two independent replicates
Experimental: as §1, §2

[4] = system: Bacillus subtilis ATCC 6633; assay: Disk diffusion; details: 10 mg/ml, 20 μl
S. aureus NCTC 6571 [5] = assay: Time-kill experiments; format: cell-based; details: for effect on viability over the 4 h of the experiment: MHB, 37° C.; for effect on viability over the 4 h of the experiment / viable counts at 24 h: initial 0.5-1.0×10^7 CFU/ml
Experimental: An overnight 10 ml MHB culture of S. aureus NCTC 6571 was diluted to 0.5 McFarland in MHB then 1 ml was used to inoculate each of four 100 ml flasks prepared as follows: • 1) 9.0 ml MHB (control) • 2) 9.99 ml MHB plus 9.7 μl of TSB007 working stock at 2048 μg/ml (1.8 μg/ml) • 3) 9.98 ml MHB plus 19.5 μl of TSB007 working stock at 2048 μg/ml (3.6 μg/ml) • 4) […] MHB plus 256 μl of a TSB007 master stock (320 μg/ml).
The flasks were incubated at 37° C. for 10 min before inoculation. Samples (0.1 ml) were taken immediately after inoculation (time 0) and then at 15, 30, 60, 120 and 240 min. The samples were immediately diluted 10^−1 in 0.01 M phosphate buffered saline at pH 7.0 (PBS). Further 10-fold dilutions in PBS were made down to 10^−4 until the 60 min time point, and then down to 10^−6 for the remaining time points. Viable counts were estimated using 3×20 μl drops from each dilution on MHA which was then incubated at 37° C. overnight before counting. These were normalised against the initial counts from each flask. Testing was performed on three separated occasions.

O=C(O)c1ccc(/C=C/c2cc(/C=C/c3ccc(C(=O)O)cc3)cc(/C=C/c3ccc(C(=O)O)cc3)c2)cc1 [TSB007]
MIC (S. pyogenes NCTC 8302; 35° C., 24 h): > 32 µg/mL
MBC (S. pyogenes NCTC 8302): > 32 µg/mL
MIC (S. xylosus ATCC 29971; 35° C., 24 h): 8 to 16 µg/mL (≈ 15.5 to 31 µM)
MBC (S. xylosus ATCC 29971): 8 to 16 µg/mL (≈ 15.5 to 31 µM)
MIC (S. aureus ATCC 29213; 35° C., 24 h): 4 µg/mL (≈ 7.74 µM)
MBC (S. aureus ATCC 29213): > 32 µg/mL
MIC (S. pyogenes NCTC 8191; 35° C., 24 h): > 32 µg/mL
MBC (S. pyogenes NCTC 8191): > 32 µg/mL
MIC (S. pneumoniae ATCC 6305; 35° C., 24 h): > 32 µg/mL
MBC (S. pneumoniae ATCC 6305): > 32 µg/mL
MIC (S. pneumoniae ATCC 49619; 35° C., 24 h): 32 µg/mL (≈ 61.9 µM)
MBC (S. pneumoniae ATCC 49619): > 32 µg/mL
MIC ([1]; 35° C., 24 h): 2 to 4 µg/mL (≈ 3.87 to 7.74 µM)
MBC [1]: > 32 µg/mL
MIC ([2]; 35° C., 24 h): 2 to 4 µg/mL (≈ 3.87 to 7.74 µM)
MBC [2]: > 32 µg/mL
MIC (S. aureus NCTC 6571 [3]; 35° C., 24 h): 2 to 4 µg/mL (≈ 3.87 to 7.74 µM)
MBC (S. aureus NCTC 6571 [3]): > 32 µg/mL
Zone diameters, 24 h TSB007 ([4]; 24 h): 8 trim
Zone diameters, 48 h TSB007 ([4]; 48 h): 8 trim
effect on viability over the 4 h of the experiment (S. aureus NCTC 6571 [5]; 1.8 μg/ml): inhibitory
viable counts at 24 h (S. aureus NCTC 6571 [5]; 1.8 μg/ml): 10^8 CFU/ml
effect on viability over the 4 h of the experiment (S. aureus NCTC 6571 [5]; 3.6 μg/ml): inhibitory
viable counts at 24 h (S. aureus NCTC 6571 [5]; 3.6 μg/ml): 10^3-10^6 CFU/ml
viable cells at first time point (S. aureus NCTC 6571 [5]; 320 μg/ml (1.25×MBC), 15 min): below the limit of detection
kill (S. aureus NCTC 6571 [5]; 320 μg/ml (1.25×MBC), first time point of 15 min): > 99.9%
